This is an account of results in ChEMBL document CHEMBL4359839, “The Significance of Chirality in Drug Design and Synthesis of Bitopic Ligands as D3 Receptor (D3R) Selective Agonists” (J Med Chem, 2019).

Molecules are shown by their SMILES.

Data set [1] is filed under the species Homo sapiens. Nature of the data set: Selectivity ratio of Ki for displacement of [3H]-(R)-(+)-7-OH-DPAT from recombinant human D2L receptor expressed in HEK293 cell membranes to Ki for displacement of [3H]-(R)-(+)-7-OH-DPAT from recombinant human D3 receptor expressed in HEK293 cell membranes.
For a further data set, the target named is T1, D(4) dopamine receptor (Homo sapiens, UniProt P21917).
T1 sequence (P21917 whole entry): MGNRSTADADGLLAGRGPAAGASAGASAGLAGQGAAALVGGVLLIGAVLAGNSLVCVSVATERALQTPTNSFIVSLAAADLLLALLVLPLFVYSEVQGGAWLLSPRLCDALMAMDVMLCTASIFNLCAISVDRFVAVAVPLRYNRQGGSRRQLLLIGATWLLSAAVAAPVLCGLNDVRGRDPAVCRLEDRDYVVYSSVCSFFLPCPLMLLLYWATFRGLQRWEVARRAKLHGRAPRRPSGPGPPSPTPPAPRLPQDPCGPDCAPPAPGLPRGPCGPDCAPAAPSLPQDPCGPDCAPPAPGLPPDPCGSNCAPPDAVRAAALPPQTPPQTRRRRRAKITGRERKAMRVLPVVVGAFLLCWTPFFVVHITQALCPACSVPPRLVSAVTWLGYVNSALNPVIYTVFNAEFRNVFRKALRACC
Nature of the data set: Displacement of [3H]-(R)-(+)-7-OH-DPAT from recombinant human D4.4 receptor expressed in HEK293 cell membranes measured after 90 mins by microbeta scintillation counting analysis.

The species named for data set [2] is Homo sapiens. Nature of the data set: Selectivity ratio of Ki for displacement of [3H]-(R)-(+)-7-OH-DPAT from recombinant human D4.4 receptor expressed in HEK293 cell membranes to Ki for displacement of [3H]-(R)-(+)-7-OH-DPAT from recombinant human D3 receptor expressed in HEK293 cell membranes.
Data set [3] in a line: Drug level in rat liver microsomes treated with trans-N-(2-(2-(((2S,5S)-2-(6-Aminopyridin-3-yl)-5-methylmorpholino)methyl)cyclopropyl)ethyl)-1H-indole-2-carboxamide assessed as metabolite formation at 10 uM measured after 60 mins in presence of NADPH by LC-HRMS analysis. Type of data set: ADME, Microsome.
Another data set deals with D(2) dopamine receptor (Homo sapiens, UniProt P14416). Nature of the data set: Displacement of [3H]-(R)-(+)-7-OH-DPAT from recombinant human D2L receptor expressed in HEK293 cell membranes measured after 90 mins by microbeta scintillation counting analysis.
D(2) dopamine receptor, sequence (P14416 whole entry): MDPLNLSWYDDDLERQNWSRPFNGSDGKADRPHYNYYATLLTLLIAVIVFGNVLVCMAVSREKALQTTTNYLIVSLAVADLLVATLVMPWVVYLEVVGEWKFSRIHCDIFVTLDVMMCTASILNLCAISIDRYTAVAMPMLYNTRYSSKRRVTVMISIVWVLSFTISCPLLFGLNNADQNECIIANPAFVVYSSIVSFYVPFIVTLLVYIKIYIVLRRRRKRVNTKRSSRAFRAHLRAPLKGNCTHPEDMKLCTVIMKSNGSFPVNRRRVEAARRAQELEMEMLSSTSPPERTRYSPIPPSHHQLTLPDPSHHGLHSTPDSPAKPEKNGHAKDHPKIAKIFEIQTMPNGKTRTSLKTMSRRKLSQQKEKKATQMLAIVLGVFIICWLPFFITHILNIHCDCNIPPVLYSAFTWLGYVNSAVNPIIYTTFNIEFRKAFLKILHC
The target in another data set is D(3) dopamine receptor (Homo sapiens, UniProt P35462). Nature of the data set: Displacement of [3H]-(R)-(+)-7-OH-DPAT from recombinant human D3 receptor expressed in HEK293 cell membranes measured after 90 mins by microbeta scintillation counting analysis.
D(3) dopamine receptor, sequence (P35462 whole entry): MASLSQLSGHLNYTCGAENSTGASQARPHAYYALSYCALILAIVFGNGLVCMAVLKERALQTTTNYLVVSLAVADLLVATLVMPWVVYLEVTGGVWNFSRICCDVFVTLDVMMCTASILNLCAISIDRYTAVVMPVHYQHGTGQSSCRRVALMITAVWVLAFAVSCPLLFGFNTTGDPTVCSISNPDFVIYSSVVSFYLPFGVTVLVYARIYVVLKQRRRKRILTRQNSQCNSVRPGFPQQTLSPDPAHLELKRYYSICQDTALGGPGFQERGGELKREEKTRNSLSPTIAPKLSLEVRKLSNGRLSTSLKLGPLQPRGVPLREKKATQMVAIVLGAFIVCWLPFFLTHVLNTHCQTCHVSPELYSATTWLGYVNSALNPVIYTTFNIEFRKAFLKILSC

With `C[C@H]1CO[C@H](c2ccc(N)nc2)CN1CC1CC1CNC(=O)c1cc2ccccc2[nH]1` (mixture of isomers) [listing 1 of 2 here], in the data set listed under Homo sapiens [1], the Ratio Ki is 0.213. On the same count and under the same terms, the figure for `CCCN1CCO[C@@H]2c3cc(OCCCCNC(=O)c4ccc5c(c4)Cc4ccccc4-5)ccc3OC[C@H]21` is 8.33. Still for that read-out and setting: the figure for `CCCN1CCO[C@@H]2c3cc(OCCCCNC(=O)c4ccc5scnc5c4)ccc3OC[C@H]21` is 4.3.

On to `CCCN(CCC)c1ccc(C2CN(CCC)[C@@H](C)CO2)cn1` (stereo partly specified), for which the Ki on D(4) dopamine receptor was > 100 µM. The Ratio Ki in the data set listed under Homo sapiens [1] was determined as 0.391. With `O=C(NCCCCNC1COc2ccc(O)cc2C1=O)c1cc2ccccc2[nH]1` (stereo in doubt; 19b), the Ratio Ki in the data set filed under Homo sapiens [1] turned out to be 0.808. For the compound `C[C@H]1COC(c2ccc(N)nc2)CN1CCCCOc1ccc2c(c1)NC(=O)CC2` (stereo partly specified), the results for the Ratio Ki in the data set filed under Homo sapiens [1] and in the data set filed under Homo sapiens [2] were 0.653 and 18.6, respectively. Regarding `C[C@H]1CO[C@@H](c2ccc(N)nc2)CN1CC1CC1CNC(=O)c1cc2ccccc2[nH]1` (stereo in doubt; form 4), in the data set listed under Homo sapiens [1], the Ratio Ki worked out at 0.435. For the compound `C[C@H]1CO[C@@H](c2ccc(N)nc2)CN1`, the Ratio Ki in the data set listed under Homo sapiens [1] turned out to be 5.52. For the same compound, the Drug metabolism entry in data set [3] is recorded as “Metabolite_Detected”. As to `CC1=COC(c2ccc(N)nc2)CN1CC1CC1CCNC(=O)c1cc2ccccc2[nH]1` (stereo unspecified), the Drug metabolism result in data set [3] is recorded as “Metabolite_Detected”.

For the compound `C[C@H]1CO[C@H](c2ccc(N)nc2)CN1CC1CC1CNC(=O)c1cc2ccccc2[nH]1` (stereo in doubt; form 2), the Ratio Ki in the data set filed under Homo sapiens [1] is 0.235. The same measure, in the same setting: next, `CCCN1CCO[C@@H]2c3cc(OCCCCNC(=O)c4cc5ccccc5o4)ccc3OC[C@H]21`: 1.57; `C[C@H]1CO[C@@H](c2ccc(N)nc2)CN1C/C=C/COc1ccc2c(c1)NC(=O)CC2`: 0.297; `C[C@H]1CO[C@H](c2ccc(N)nc2)CN1`: 4.67. The same measure, in the same setting: next, `O=C1CCc2ccc(OCCCCN3CCO[C@@H]4c5cc(O)ccc5OC[C@H]43)cc2N1`: 0.554; `C[C@H]1CO[C@H](c2ccc(N)nc2)CN1CCCCOc1ccc2c(c1)NC(=O)CC2`: 0.11. Same read-out and setting: next, `C[C@H]1CO[C@H](c2ccc(N)nc2)CN1CC1CC1CNC(=O)c1cc2ccccc2[nH]1` (stereo in doubt; form 1): 0.431; `C[C@H]1CO[C@@H](c2ccc(N)nc2)CN1CC1CC1CNC(=O)c1cc2ccccc2[nH]1` (stereo in doubt; form 2): 1.75.

In the case of `C[C@H]1CO[C@@H](c2ccc(N)nc2)CN1CCCCOc1ccc2c(c1)NC(=O)CC2`, the Ratio Ki in the data set filed under Homo sapiens [1] is 1.11. As to `Oc1ccc2c(c1)[C@H]1OCCN[C@@H]1CO2`, in the data set listed under Homo sapiens [1], the Ratio Ki was determined as 10.5. In the case of `CCCN1CCO[C@@H]2c3cc(OCCCCN4C(=O)c5ccccc5C4=O)ccc3OC[C@H]21`, the Ratio Ki in the data set listed under Homo sapiens [1] is 2.11. As to `C[C@H]1COC(c2cnc(N)c(O)c2)CN1CC1CC1CCNC(=O)c1cc2ccccc2[nH]1` (stereo partly specified), in data set [3], the Drug metabolism entry is on record as “Metabolite_Detected”. Turning to `C[C@H]1CO[C@H](c2ccc(N)nc2)CN1C/C=C/COc1ccc2c(c1)NC(=O)CC2`, the Ratio Ki in the data set filed under Homo sapiens [1] is 0.289. Consider `CCc1cc(Cl)c(OC)c(N2CCN(CCCCOc3ccc4c(c3)NC(=O)CC4)CC2)c1`, for which the Ki on D(2) dopamine receptor came to 0.00186 µM; at D(3) dopamine receptor, 0.0409 µM. Also, the Ratio Ki in the data set listed under Homo sapiens [1] was 0.0455.

As for `C[C@H]1CO[C@@H](c2ccc(N)nc2)CN1CC1CC1CNC(=O)c1cc2ccccc2[nH]1` (stereo in doubt; form 1), in the data set filed under Homo sapiens [1], the Ratio Ki came out at 0.182. On to `O=C(NCCCCNC1COc2ccc(O)cc2C1=O)c1cc2ccccc2[nH]1` (stereo in doubt; 19a), for which the Ratio Ki in the data set listed under Homo sapiens [1] is 0.71.

With `CCCN1CC(c2ccc(N)nc2)OC[C@@H]1C` (stereo partly specified), the Ratio Ki in the data set listed under Homo sapiens [1] was 9.41; in the data set filed under Homo sapiens [2], 1.58. With `C[C@H]1CO[C@@H](c2ccc(N)nc2)CN1CC1CC1CNC(=O)c1cc2ccccc2[nH]1` (stereo in doubt; form 3), the Ratio Ki in the data set filed under Homo sapiens [1] was found to be 0.498. The same measure, in the same setting: the figure for `CCCN1CCO[C@@H]2c3cc(OCCCCNC(=O)c4cc5cccnc5[nH]4)ccc3OC[C@H]21` is 3.12; for `CCCN1CCO[C@@H]2c3cc(OCCCCNC(=O)c4nc5ccccc5s4)ccc3OC[C@H]21` it is 4.14; for `CCCN1CCO[C@@H]2c3cc(OCCCCOc4ccc5c(c4)NC(=O)CC5)ccc3OC[C@H]21` it is 6.35. The same measure, in the same setting: the figure for `CCCN1CCO[C@@H]2c3cc(OCCCCNC(=O)c4cc5ccccc5[nH]4)ccc3OC[C@H]21` is 6.3.

Take `CCCN1CCO[C@@H]2c3cc(O)ccc3OC[C@H]21`: the Ratio Ki in the data set listed under Homo sapiens [1] is 12.1; in the data set filed under Homo sapiens [2] it was 15.7.

`C[C@H]1CO[C@H](c2ccc(N)nc2)CN1CC1CC1CNC(=O)c1cc2ccccc2[nH]1` (mixture of isomers) [listing 2 of 2 here]: the Ki came out at 14.1 µM on D(2) dopamine receptor and 66.2 µM on D(3) dopamine receptor.
